Results as given in patent publication US20240001012A1, “SOLUTIONS FOR […] OF A DRUG AD[…] […] AND DOSING ALGORITHM THEREFOR” (DREXEL UNIVERSITY, priority 2017, published 2024).

Legend:
[1] = test system: methicillin-sensitive Staphylococcus aureus; assay: Follow-up cultures in patient 9 on vancomycin via CRRT; type: in vivo, human; conditions: day 6 of vancomycin therapy, blood culture also negative
Text: (§1) Only two patients, patients 4 and 9, had cultures that were positive for a gram-positive organism. […] Subsequent cultures obtained from the blood and the respiratory system were negative. The isolate of Streptococcus pneumoniae was penicillin sensitive, and the patient was changed to ampicillin for the remainder of the treatment course.

[2] = Serum vancomycin plateau level in patients receiving continuous infusion vancomycin mixed in the CRRT solution; type: in vivo, human
Protocol: According to embodiments disclosed herein, drug concentrations in the solution(s) are adjusted in vitro based on an initial serum plateau level, and subsequent levels are thereafter obtained based on these changes. […] See step 70.
In this study, CRRT was performed using a Prismaflex System machine (Gambro, Lakewood, CO). The mode of dialysis, continuous venovenous hemofiltration or hemodiafiltration was dictated by an attending nephrologist prescribing the dialysis. The
(§2) Prismaflex machine was initially primed with two 1-L bags of normal saline and 5,000 units of heparin. The machine was then primed with normal saline, 5% albumin, or a blood exchange (blood is transfused to the patient as the prime is wasted) depending on the percent extracorporeal volume of the patient with a dialysis solution utilizing HF1000, AN69 dialysis filters. Commercially available dialysate and replacement solutions were used for all CRRT patients. The CRRT circuit and solutions were inspected and observed for adverse events, such as specifically for precipitation and clotting. The CRRT solution(s) and circuit were visually inspected after addition of the CRRT circuit prior to the final connection to the patient.
The median eGFR on ICU admission was 39.9 mL/min/1.73 m 2 (25th to 75th IQR, 25.8-53.4 mL/min/1.73 m 2) compared with a median eGFR of 26.7 mL/min/1.73 m 2 (25th to 75th IQR, 18.8-42.7 mL/min/1.73 m 2) with the initiation of CRRT.

[3] = escalation in CRRT intensity from hemofiltration to hemodiafiltration; Joy et al. 1998; cited from earlier work
[4] = Stability of vancomycin with components of the CRRT solution; type: physicochemical; conditions: in CRRT solution
Text: The CRRT or like solution may be prepared at the time it is needed following current standard operating procedures for sterile product compounding or as discussed below in greater detail. The amount of vancomycin, for instance, to be added to the solution is described below in greater detail. Accordingly, this mixed solution is provided for being infused for the duration it is prescribed for CRRT. […] Other drugs may be stable for less or more time.

Streptococcus pneumoniae = assay: Follow-up cultures in patient 4 on vancomycin via CRRT; type: in vivo, human; conditions: vancomycin continued 2 days
Text: as §1

[5] = Inspection of CRRT solution(s) and circuit for precipitation and clotting after mixing vancomycin; conditions: on mixing the vancomycin in the CRRT solution
Text: Upon initiation of CRRT, the CRRT circuit may be inspected and evaluated on an hourly basis according to current standards of care. A part of the hourly standard of care inspection may involve inspection of the CRRT solution for precipitation and crystallization. This assessment should continue for the period of time the patient is receiving CRRT and vancomycin or other antibiotics is mixed in the CRRT solution.
as §2

With CN[C@H](CC(C)C)C(=O)N[C@H]1C(=O)N[C@@H](CC(N)=O)C(=O)N[C@H]2C(=O)N[C@H]3C(=O)N[C@H](C(=O)N[C@H](C(=O)O)c4cc(O)cc(O)c4-c4cc3ccc4O)[C@H](O)c3ccc(c(Cl)c3)Oc3cc2cc(c3O[C@@H]2O[C@H](CO)[C@@H](O)[C@H](O)[C@H]2O[C@H]2C[C@](C)(N)[C@H](O)[C@H](C)O2)Oc2ccc(cc2Cl)[C@H]1O [Vancomycin, vancomycin] the repeat respiratory culture [1] was “negative”, the “median (25th to 75th IQR) vancomycin serum plateau concentration” value ([2]; 11 patients, median solution concentration 25 mg/L) was 21.8 (20.9-25) and the “Vancomycin Level, IQR, 25” value ([2]; all levels of 11 patients) was 20.9 µg/mL. The “Vancomycin Level, IQR, 75” value ([2]; all levels of 11 patients) was 25 µg/mL, the “Vancomycin Level, Min” value ([2]; all levels of 11 patients) was 12.9 µg/mL and the “Vancomycin Level, Mean” value ([2]; all levels of 11 patients, mean CRRT solution concentration 26.5 μg/mL) was 22.3 µg/mL. The “Vancomycin Level, Median” value ([2]; all levels of 11 patients, median CRRT solution concentration 25 μg/mL) was 21.8 µg/mL, the “attainment of therapeutic vancomycin serum plateau levels” value ([2]; all patients, regardless of CRRT modality, dose and flow rate) was “all patients achieved therapeutic vancomycin serum plateau levels” and the concentration at 8 h ([2]; human, serum, other: continuous infusion mixed in the CRRT solution, the one patient below 15 mg/L at 8 hours) was 12900 ng/mL. For the same molecule, the “therapeutic serum level after adjustment of the CRRT solution concentration” value ([2]; same patient, within 16 hours of starting CRRT) was 23.5 mg/L, the “patients achieving a therapeutic serum vancomycin level within 8 hours” value ([2]; ten of eleven patients, within 8 hours of starting mixing vancomycin into the CRRT solution, target 15-30 mg/L) was 91% and the “increase in vancomycin clearance” value [3] was “greater than or equal to 30%”. The “stable with components of the CRRT solution” value [4] was “at least 96 hours”, the “subsequent cultures from blood and respiratory system” value (Streptococcus pneumoniae) was “negative” and the “adverse events regarding precipitation of vancomycin with CRRT solution(s) or circuit” value [5] was “no adverse events were observed”.
